The conditions of series [1]: cited from earlier work.
The subject of series [2] is αSMA. In words: αSMA intensity (fibroblast activation) in IPF patient-derived lung fibroblasts + TGFβ, dopaminergic agonist library. The class given is cell-based, human. To be noted: Homo sapiens, SMA, 72 h, 1 μM + TGFβ, read-out: αSMA intensity (% of DMSO control). A digest of the protocol:
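Cells under the indicated conditions were immunostained overnight for αSMA (1:200), with fluorescent secondary antibodies and DAPI. Imaged by fluorescence microscopy. […]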

Series [3] deals with YAP/TAZ. In words: YAP/TAZ nuclear localization in IPF patient-derived lung fibroblasts treated with dopaminergic agonists. It is filed as cell-based, human. To be noted: 10 μM, 2 hours. In outline:
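Fibroblasts from IPF patients (N=4 patient samples) were exposed to dopaminergic agonists at 10 μM for 2 h before fixation. Cells were immunostained for YAP/TAZ with DAPI counterstain and imaged at 4×. Percent nuclear YAP/TAZ localization was quantified by automated image analysis.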

The test system of the next series is lung fibroblasts. In words: Fibroblast proliferation (counting DAPI nuclei). It is filed as cell-based, human. To be noted: adult lung fibroblasts, 2 ng/mL TGFβ, DAPI nuclei count. How it is done:
IPF fibroblast and Normal lung fibroblast co-culture proliferation. Cell are prelabelled with fluorescent dyes (red and green) and then cocultured at a ratio of about 1:1 in 96 well plates. Cell counts are determined every 24 hours and plotted as a ratio of IPF/HLF cells. In the control wells the IPF cells outgrow and take over the well. N=2.
Proliferation of lung fibroblasts (IMR-90 cells) measured for 4 days in the presence of GPCR agonists ET-1 (100 nM) and LPA (10 μM)+/−10 μM DHX. Cells were fixed and counted with DAPI at the end of each day. N=3 technical triplicates.
Adult lung fibroblasts plated into 96-well plates, stimulated with 2 ng/mL TGFβ and compounds at the indicated concentration. Proliferation determined by fixing and counting DAPI nuclei using a Cytation 5. N=2.
Fibroblasts were stimulated with 2 ng/mL TGFβ and treated with compound 1 (MS-9) at the indicated concentration (0.1 μM, 1 μM, and 10 μM). Proliferation determined by fixing and counting DAPI nuclei using a Cytation.

The test system of another series is Collagen I. Briefly: Collagen I deposition by TGFβ-stimulated adult lung fibroblasts (LI-COR Odyssey). The class given is cell-based. To be noted: Homo sapiens, Fibroblast, 2 ng/mL TGFβ 96 hours, compound every 48 hours. How it is done: FIG. 72 contains a line plot showing that compound CTC-3 inhibits Collagen I deposition. Adult lung fibroblasts plated into 96-well plates, stimulated with 2 ng/mL TGFβ for 96 hours and treated with the indicated concentration of compounds every 48 hours. Imaging and quantification of Collagen I intensity performed through automation using a LI-COR Odyssey.
FIG. 73 contains a line plot showing that compound CTC-6 inhibits Collagen I deposition. Adult lung fibroblasts plated into 96-well plates, stimulated with 2 ng/mL TGFβ for 96 hours and treated with the indicated concentration of compounds every 48 hours. Imaging and quantification of Collagen I intensity performed through automation using a LI-COR Odyssey. (IC50 is 0.4 μM).
FIG. 91B contains a line plot showing that compound 1 inhibits Collagen I deposition. Adult lung fibroblasts plated into 96-well plates, stimulated with 2 ng/mL TGFβ for 96 hours and treated with the indicated concentration of compounds every 48 hours. Imaging and quantification of Collagen I intensity performed through automation using a LI-COR Odyssey.
Imaging and quantification of collagen I intensity performed through automation using a LI-COR Odyssey.

The test system of series [4] is αSMA. Briefly: Fibroblast activation: αSMA intensity in TGFβ-stimulated adult lung fibroblasts. To be noted: Homo sapiens, SMA, 2 ng/mL TGFβ 96 hours, compound every 48 hours. The class given is cell-based. How it is done: FIG. 70 contains a line plot showing that compound CTC-3 inhibits fibroblast activation. Adult lung fibroblasts plated into 96-well plates, stimulated with 2 ng/mL TGFβ for 96 hours and treated with the indicated concentration of compounds every 48 hours. Imaging and quantification of αSMA intensity performed through automation using a Cytation 5. (IC50 is 0.3 μM).
FIG. 71 contains a line plot showing that compound CTC-6 inhibits fibroblast activation. Adult lung fibroblasts plated into 96-well plates, stimulated with 2 ng/mL TGFβ for 96 hours and treated with the indicated concentration of compounds every 48 hours. Imaging and quantification of αSMA intensity performed through automation using a Cytation 5.
FIG. 91A contains a line plot showing that compound 1 inhibits fibroblast activation. Adult lung fibroblasts plated into 96-well plates, stimulated with 2 ng/mL TGFβ for 96 hours and treated with the indicated concentration of compounds every 48 hours. Imaging and quantification of αSMA intensity performed through automation using a Cytation 5.
Alpha-smooth muscle actin (αSMA) staining is a well-defined marker of fibroblast activation observed in wound healing and tissue fibrosis. […] Imaging and quantification of αSMA intensity performed through automation using a Cytation 5.

Series [5] relates to YAP/TAZ. Briefly: YAP/TAZ nuclear localization in adult lung fibroblasts, dose response (Cytation 5). The class given is cell-based. To be noted: Homo sapiens, Fibroblast, 2 h, adult lung fibroblasts sparsely plated, treated 2 hours; read-out: IC50, inhibition of YAP/TAZ nuclear localization. How it is done:
Adult lung fibroblasts (N=2) sparsely plated into 96-well plates. Treated for 2 hours with compounds prior to fixing and immunostaining for YAP/TAZ.
(§1) Immunofluorescence Microscopy: Cells were plated into 96 well plates (Corning 3603) in their specific growth media and allowed to attach (8 hours). Media was then exchanged for the indicated conditions for each experiment. Cells were fixed in 3.7% formalin (Sigma-Aldrich), permeabilized in 0.25% Triton X-100 (Sigma-Aldrich) and then blocked with 1% BSA for 1 h. Cells or tissue sections were incubated overnight with mouse monoclonal antibody against αSMA (Sigma-Aldrich F3777), and/or a rabbit monoclonal antibody against YAP/TAZ (Cell Signaling D24E4) diluted 1:200 in PBS with 1% BSA. Cells were then washed and exposed to flourescence-conjugated secondary antibodies (Invitrogen) diluted 1:1000 and DAPI (Thermo Fisher Scientific). Images were taken with a Cytation5 (BioTek) microscope. For scoring αSMA positive cells (FIG. 12), an observer blinded to the treatment conditions counted αSMA-positive cells using a visual threshold for bright fibrous staining; a minimum of 200 cells was counted for each condition. YAP/TAZ localization was quantified (FIGS. 6-10, 24-26, and 29-30) using Gen5 (Biotek) software. Images were taken at 4× magnification of both DAPI and YAP/TAZ staining. […] Quantification of double positive (YAP/TAZ and αSMA) cells from lung tissue sections (FIG. 17-21) was performed similarly; however separate thresholds were established for both YAP/TAZ and αSMA. A minimum of 4000 cells was quantified for each mouse.

Series [6] relates to YAP/TAZ. In words: YAP/TAZ nuclear localization in IMR-90 and other fibroblasts / mesenchymal cells (immunofluorescence). It is filed as cell-based, human. To be noted: fibroblasts / mesenchymal cells on plastic, 2 hours. How it is done: Selective agonists of dopamine receptor D1 with varying efficacy inhibit YAP/TAZ nuclear localization; this effect can be overcome by treatment with a DRD1 receptor antagonist (SCH 39166, 3 μM), (Dihydrexidine, 10 μM). IMR-90 cells treated 2 hours prior to fixation. N=4 (****p<0.0001 vs. 0.10% DMSO vehicle control). Scale bar represents 100 μm.
In each case DHX treatment (10 μM) can reverse this effect on YAP/TAZ. IMR-90 cells plated densely onto plastic cell culture plates for 24 hours in media containing 0.1% FBS, treated for 2 hours prior to fixation. N=4 (****p<0.0001 vs. 0.1% DMSO vehicle control), (++++p<0.0001 vs. the respective stimulated agonist ET-1, LPA, or 5-HT). Scale bar represents 100 μm.
Mesenchymal cells derived from lung (IMR-90 and IPF-FBs) hepatic stellate cells (HSC), human adult cardiac fibroblasts, (HACF) and human dermal fibroblasts (HDF) were plated densely (Confluent) or sparsely (Control and all remaining conditions) onto plastic cell culture plates for 24 hours in media containing 0.10% FBS, treated for 2 hours with Rho kinase inhibitor Y27632, adenylate cyclase activator forskolin and DHX. N=4, Cells that were positive for nuclear YAP/TAZ were quantified by automated image analysis.
as §1

SMILES strings stand for the structures. Structures can show the parent of a compound that is named as a salt. Where two headings read alike, the source gives them in different places.

Regarding `CN1CCc2cccc3c2[C@H]1Cc1ccc(O)c(O)c1-3` [(R)-(−)-Apomorphine•HCl, (R)-(−)-Apomorphine], in series [1], the “oxidation / stability at physiological pH” value is “oxidized into the inactive quinone”. Further, the activity at 1 µM in the series on αSMA [2] (IPF-1 patient fibroblasts) is 7.07%; with αSMA [2] (IPF-2 patient fibroblasts), 1.17%; in the series on αSMA [2] (IPF-3 patient fibroblasts) it was 0.962%; in the series on αSMA [2] (IPF-4 patient fibroblasts), 33.7%. The “Nuclear localization (% of total cells)” value with YAP/TAZ [3] (IPF-1 patient fibroblasts) is 29.21 % of total cells; in the series on YAP/TAZ [3] (IPF-2 patient fibroblasts), 31.97 % of total cells; with YAP/TAZ [3] (IPF-3 patient fibroblasts) it was 27.47 % of total cells; in the series on YAP/TAZ [3] (IPF-4 patient fibroblasts) it was 17.86 % of total cells.

On to `NCC1OC(C2CCOCC2)Cc2c1ccc(O)c2O` (stereo not shown) [CTC-3], for which the fibroblast proliferation result in the series on lung fibroblasts is reported as “inhibits fibroblast proliferation”. Also, the IC50 worked out at 700 nM in the series with Collagen I and 300 nM with αSMA [4].

Regarding `NCC1OC(c2ccncc2)Cc2c1ccc(O)c2O` (stereo not shown) [CTC-6], the IC50 stood at 62 nM in the series on YAP/TAZ [5], 400 nM with Collagen I and 100 nM with αSMA [4]. For the same compound, the fibroblast proliferation result in the series with lung fibroblasts was “inhibits fibroblast proliferation”.

`Oc1ccc(C2CNCCc3c2cc(O)c(O)c3Cl)cc1` (stereo not shown) [Fenoldopam•HCl, Fenoldopam]: the “oxidation / stability at physiological pH” value in series [1] was “stable at physiological pH”. Further, the YAP/TAZ nuclear localization entry with YAP/TAZ [6] is given as “reduced nuclear localization of YAP/TAZ”. The “Nuclear localization (% of total cells)” value was 68.1 % of total cells with YAP/TAZ [3] (IPF-1 patient fibroblasts), 50.32 % of total cells in the series with YAP/TAZ [3] (IPF-2 patient fibroblasts), 66.64 % of total cells in the series on YAP/TAZ [3] (IPF-3 patient fibroblasts) and 63 % of total cells in the series with YAP/TAZ [3] (IPF-4 patient fibroblasts).

Values taken from patent US12264163B2, “Compounds and methods for treating fibrotic pathologies” (Mayo Foundation for Medical Education and Research, priority 2019, dated 2025).
